{
  "source": "paper PMC10257182",
  "about": "“Discovery of senolytics using machine learning” (Nature Communications, 2023)",
  "format_in_all_cases": "cell-based, human",
  "key": {"[1]": {"tested_on": "senescent IMR90 ER:RAS cells (4-OHT-induced)", "assay": "Nuclei count (Hoechst, high content imaging) senolytic assay, oncogene-induced senescence (OIS) model, senescent cells", "details": "for Mean % Cell Survival: Senescent, mean n=3 (Fig 3C); for % Cell Survival: senescence", "summary_of_the_method": "(§1)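 Senescence in IMR90 ER:RAS fibroblasts induced with 100 nM 4-OHT; non-senescent and senescent cells treated 72 h with compounds, 10-point […] range 10 μM–10 nM, triplicate. Cells fixed, permeabilised, Hoechst-stained; total nuclei per well counted by high-content imaging versus untreated controls as cell-death readout.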"}, "[2]": {"tested_on": "non-senescent control IMR90 ER:RAS cells", "assay": "Nuclei count (Hoechst, high content imaging) senolytic assay, OIS model, non-senescent control cells", "details": "for Mean % Cell Survival: Control, mean n=3 (Fig 3C); for % Cell Survival: control", "summary_of_the_method": "as §1"}, "[3]": {"tested_on": "non-senescent control A549 cells", "assay": "Nuclei count senolytic assay, TIS model, non-senescent control cells", "details": "for Mean % Cell Survival: Control cells; for % Cell Survival: control cells, single replicate", "summary_of_the_method": "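A549 cells were made senescent with 100 μM etoposide for 48 h, then kept three days in normal media; non-senescent A549 served as controls. Compounds were dosed as a 10-point […] series (10 μM to 10 nM final) for 72 h in triplicate. Hoechst-stained nuclei were counted by imaging after fixation.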"}, "[4]": {"details": "log (dose) [M] -5, individual replicates (Fig 3D)"}, "[5]": {"details": "log (dose) [M] -5.33, individual replicates (Fig 3D)"}, "[6]": {"details": "log (dose) [M] -5.66, individual replicates (Fig 3D)"}, "[7]": {"details": "log (dose) [M] -6, individual replicates (Fig 3D)"}, "[8]": {"details": "log (dose) [M] -6.33, individual replicates (Fig 3D)"}, "[9]": {"details": "log (dose) [M] -6.66, individual replicates (Fig 3D)"}, "[10]": {"details": "log (dose) [M] -7, individual replicates (Fig 3D)"}, "[11]": {"details": "log (dose) [M] -7.33, individual replicates (Fig 3D)"}, "[12]": {"details": "log (dose) [M] -7.66, individual replicates (Fig 3D)"}, "[13]": {"details": "log (dose) [M] -8, individual replicates (Fig 3D)"}},
  "note": "“And” between values parts separate entries of the source, which are not always exact repeats. Equal entries are not always repeated.",
  "data": [
    {"smiles": "CO[C@H]1C[C@H](O[C@H]2CC[C@]3(C)[C@H]4CC[C@]5(C)[C@@H](C6=CC(=O)OC6)CC[C@]5(O)[C@@H]4CC[C@]3(O)C2)O[C@H](C)[C@H]1O[C@@H]1O[C@H](CO)[C@@H](O)[C@H](O)[C@H]1O", "note": "[Periplocin, periplocin]", "values": [
      {"measurement": "dose showing the clearest / optimal senolytic effect", "setting": "[1]; OIS IMR90 ER:RAS, Hoechst nuclei count, marginal effect on normal cells", "value": 46.4, "unit": "nM"},
      {"measurement": "IC50", "setting": "[1]; OIS model, 4-OHT-induced IMR90 ER:RAS, nuclei count, 72 h", "value": 24, "unit": "nM"},
      {"measurement": "Mean % Cell Survival", "setting": "[1]; log (dose) [M] -5, 72 h", "value": 3.183, "unit": "%"},
      {"measurement": "Mean % Cell Survival", "setting": "[1]; log (dose) [M] -5.33, 72 h", "value": 6.126, "unit": "%"},
      {"measurement": "Mean % Cell Survival", "setting": "[1]; log (dose) [M] -5.66, 72 h", "value": 4.43, "unit": "%"},
      {"measurement": "Mean % Cell Survival", "setting": "[1]; log (dose) [M] -6, 72 h", "value": 4.805, "unit": "%"},
      {"measurement": "Mean % Cell Survival", "setting": "[1]; log (dose) [M] -6.33, 72 h", "value": 5.142, "unit": "%"},
      {"measurement": "Mean % Cell Survival", "setting": "[1]; log (dose) [M] -6.66, 72 h", "value": 5.675, "unit": "%"},
      {"measurement": "Mean % Cell Survival", "setting": "[1]; log (dose) [M] -7, 72 h", "value": 6.834, "unit": "%"},
      {"measurement": "Mean % Cell Survival", "setting": "[1]; log (dose) [M] -7.33, 72 h", "value": 16.5597, "unit": "%"},
      {"measurement": "Mean % Cell Survival", "setting": "[1]; log (dose) [M] -7.66, 72 h", "value": 54.5059, "unit": "%"},
      {"measurement": "Mean % Cell Survival", "setting": "[1]; log (dose) [M] -8, 72 h", "value": 96.9401, "unit": "%"},
      {"measurement": "senolytic activity (in words)", "setting": "[1]; experimental screen, OIS IMR90 ER:RAS", "value": "clear senolytic action"},
      {"measurement": "senolytic index (SI)", "setting": "[1]; ratio between the IC50 of control cells and the IC50 of senescent cells, OIS IMR90 ER:RAS", "value": 12.3},
      {"measurement": "% Cell Survival", "setting": "[1]; [4]", "value": "3.074% and 3.321% and 3.154%"},
      {"measurement": "% Cell Survival", "setting": "[1]; [5]", "value": "5.0494% and 9.706% and 3.6215%"},
      {"measurement": "% Cell Survival", "setting": "[1]; [6]", "value": "4.72% and 4.5977% and 3.972%"},
      {"measurement": "% Cell Survival", "setting": "[1]; [7]", "value": "4.061% and 4.981% and 5.374%"},
      {"measurement": "% Cell Survival", "setting": "[1]; [8]", "value": "6.147% and 3.321% and 5.958%"},
      {"measurement": "% Cell Survival", "setting": "[1]; [9]", "value": "4.501% and 7.152% and 5.374%"},
      {"measurement": "% Cell Survival", "setting": "[1]; [10]", "value": "5.818% and 7.791% and 6.893%"},
      {"measurement": "% Cell Survival", "setting": "[1]; [11]", "value": "17.8924% and 15.198% and 16.5888%"},
      {"measurement": "% Cell Survival", "setting": "[1]; [12]", "value": "42.1515% and 64.2401% and 57.1262%"},
      {"measurement": "% Cell Survival", "setting": "[1]; [13]", "value": "93.8529% and 97.318% and 99.6495%"},
      {"measurement": "Mean % Cell Survival", "setting": "[2]; log (dose) [M] -5, 72 h", "value": 18.4295, "unit": "%"},
      {"measurement": "Mean % Cell Survival", "setting": "[2]; log (dose) [M] -5.33, 72 h", "value": 19.4604, "unit": "%"},
      {"measurement": "Mean % Cell Survival", "setting": "[2]; log (dose) [M] -5.66, 72 h", "value": 23.5452, "unit": "%"},
      {"measurement": "Mean % Cell Survival", "setting": "[2]; log (dose) [M] -6, 72 h", "value": 29.0681, "unit": "%"},
      {"measurement": "Mean % Cell Survival", "setting": "[2]; log (dose) [M] -6.33, 72 h", "value": 43.2104, "unit": "%"},
      {"measurement": "Mean % Cell Survival", "setting": "[2]; log (dose) [M] -6.66, 72 h", "value": 52.7161, "unit": "%"},
      {"measurement": "Mean % Cell Survival", "setting": "[2]; log (dose) [M] -7, 72 h", "value": 63.4586, "unit": "%"},
      {"measurement": "Mean % Cell Survival", "setting": "[2]; log (dose) [M] -7.33, 72 h", "value": 71.1117, "unit": "%"},
      {"measurement": "Mean % Cell Survival", "setting": "[2]; log (dose) [M] -7.66, 72 h", "value": 89.3621, "unit": "%"},
      {"measurement": "Mean % Cell Survival", "setting": "[2]; log (dose) [M] -8, 72 h", "value": 91.9585, "unit": "%"},
      {"measurement": "IC50", "setting": "[2]; OIS model, non-senescent IMR90 ER:RAS, nuclei count, 72 h", "value": 300, "unit": "nM"},
      {"measurement": "% Cell Survival", "setting": "[2]; [4]", "value": "15.9071% and 11.1013% and 28.2801%"},
      {"measurement": "% Cell Survival", "setting": "[2]; [5]", "value": "20.9802% and 15.9471% and 21.4539%"},
      {"measurement": "% Cell Survival", "setting": "[2]; [6]", "value": "25.1075% and 20.6167% and 24.9113%"},
      {"measurement": "% Cell Survival", "setting": "[2]; [7]", "value": "32.8461% and 26.2555% and 28.1028%"},
      {"measurement": "% Cell Survival", "setting": "[2]; [8]", "value": "39.8108% and 40.3524% and 49.4681%"},
      {"measurement": "% Cell Survival", "setting": "[2]; [9]", "value": "51.9347% and 55.859% and 50.3546%"},
      {"measurement": "% Cell Survival", "setting": "[2]; [10]", "value": "57.6956% and 62.3789% and 70.3014%"},
      {"measurement": "% Cell Survival", "setting": "[2]; [11]", "value": "64.4884% and 71.5419% and 77.305%"},
      {"measurement": "% Cell Survival", "setting": "[2]; [12]", "value": "94.8409% and 82.7313% and 90.5142%"},
      {"measurement": "% Cell Survival", "setting": "[2]; [13]", "value": "93.6371% and 90.7489% and 91.4894%"},
      {"measurement": "IC50", "setting": "[3]; TIS model, non-senescent A549, nuclei count, 72 h", "value": 267, "unit": "nM"},
      {"measurement": "Mean % Cell Survival", "setting": "[3]; log (dose) [M] -5", "value": 2.124, "unit": "%"},
      {"measurement": "% Cell Survival", "setting": "[3]; log (dose) [M] -5", "value": "2.877% and 2.211% and 1.286%"},
      {"measurement": "Mean % Cell Survival", "setting": "[3]; log (dose) [M] -5.33", "value": 3.638, "unit": "%"},
      {"measurement": "% Cell Survival", "setting": "[3]; log (dose) [M] -5.33", "value": "1.2112% and 8.916% and 0.7857%"},
      {"measurement": "Mean % Cell Survival", "setting": "[3]; log (dose) [M] -5.66", "value": 7.571, "unit": "%"},
      {"measurement": "% Cell Survival", "setting": "[3]; log (dose) [M] -5.66", "value": "13.9288% and 0.7846% and 8%"},
      {"measurement": "Mean % Cell Survival", "setting": "[3]; log (dose) [M] -6", "value": 7.77, "unit": "%"},
      {"measurement": "% Cell Survival", "setting": "[3]; log (dose) [M] -6", "value": "11.9606% and 5.492% and 5.857%"},
      {"measurement": "Mean % Cell Survival", "setting": "[3]; log (dose) [M] -6.33", "value": 26.1787, "unit": "%"},
      {"measurement": "% Cell Survival", "setting": "[3]; log (dose) [M] -6.33", "value": "37.7744% and 16.7618% and 24%"},
      {"measurement": "Mean % Cell Survival", "setting": "[3]; log (dose) [M] -6.66", "value": 59.1283, "unit": "%"},
      {"measurement": "% Cell Survival", "setting": "[3]; log (dose) [M] -6.66", "value": "65.1022% and 52.2111% and 60.0714%"},
      {"measurement": "Mean % Cell Survival", "setting": "[3]; log (dose) [M] -7", "value": 84.2496, "unit": "%"},
      {"measurement": "% Cell Survival", "setting": "[3]; log (dose) [M] -7", "value": "92.3543% and 73.8231% and 86.5714%"},
      {"measurement": "Mean % Cell Survival", "setting": "[3]; log (dose) [M] -7.33", "value": 108.222, "unit": "%"},
      {"measurement": "% Cell Survival", "setting": "[3]; log (dose) [M] -7.33", "value": "116.881% and 101.07% and 106.714%"},
      {"measurement": "Mean % Cell Survival", "setting": "[3]; log (dose) [M] -7.66", "value": 106.048, "unit": "%"},
      {"measurement": "% Cell Survival", "setting": "[3]; log (dose) [M] -7.66", "value": "102.877% and 112.197% and 103.071%"},
      {"measurement": "Mean % Cell Survival", "setting": "[3]; log (dose) [M] -8", "value": 97.1202, "unit": "%"},
      {"measurement": "% Cell Survival", "setting": "[3]; log (dose) [M] -8", "value": "99.8486% and 91.5121% and 100%"}
    ]}
  ]
}
